From patent publication US20250161346A1, “METHODS FOR TREATING HEPATITIS B VIRUS INFECTION” (KAOHSIUNG MEDICAL UNIVERSITY, priority 2022, published 2025)
Entries after “also recorded” stand apart in the source; their conditions may differ.

Experiments:
HBV [1] = test: Intracellular WT-HBV capsid protein, capsid-associated viral RNA and DNA in the dose-response experiment; format: cell-based, hepatitis B virus; settings: 0.5 μM
Description: (§1) FIGS. 6A and 6B show a cartoon illustration for the analysis methods of extracellular and intracellular HBV viral and subviral particles. […] Viral and subviral particles are separated and characterized by Southern and Western blot analyses. Anti-HBc and anti-HBs antibodies are used consecutively for the same Western blot filters. Southern blot is performed in a separate agarose gel which allows the differentiation of genome-containing (G^+) from genome-free (G^−) viral and subviral particles. […] Then, the RNA/DNA signals are analyzed by Northern blot and Southern blot. 3.5 kb pgRNA: full-length 3.5 kb pre-genomic RNA. RT RNA: reverse transcripted RNA.
(§2) This mutant secretes no naked capsids. V/NC: Virions/naked capsids.
(§3) HBV secreted a total of six different viral and subviral particles in hepatocyte cell culture (FIG. 5). The only infectious particles were the genome-containing virions, which contained envelope protein, capsids, and encapsidated relaxed circle DNA genome. In FIGS. 6A and 6B, a cartoon illustrated the analysis methods of extracellular and intracellular HBV viral and subviral particles. […] Adding drug at 1-day post infection was not effective in blocking virion secretion (FIG. 7C). The potential cytotoxicity of KPT-335 was evaluated using two different methods—Alamar Blue and CCK-8 assays (FIG. 8).

HuH-7 cells = test: Cell proliferation by alamarBlue and CCK-8 assays; format: cell-based, human
Text: as §3

HBV [2] = test: Southern and Northern blot analyses of HBV DNA synthesis and capsid-associated pgRNA in the infection assay; format: cell-based, hepatitis B virus; settings: cotreatment, 0.5-1 μM
Description: (§4) However, HBc is strongly arrested in the nucleus by about 150-fold at 9 dpi, when co-treated with compounds KPT-330 or KPT-335. These two drugs are CRM1 inhibitors. Green: HBc. Red: NTCP. Blue: DAPI. […] Briefly, the infected culture of HepG2-NTCP-AS cells are treated with KPT-335 (0.5-1 μM) at 0, 3, and 5 dpi continuously until cell harvesting. Media are collected for ELISA of HBsAg and HBeAg. Cells are harvested for further analysis by Southern blot (SB) and Northern blots (NB). […] The level of total cytoplasmic viral RNA is reduced moderately by treatment with SINE compounds (1 μM). Comparisons of relaxed circular (RC) DNA banding intensities are as described in FIGS. 1A-1B legend, and normalized here to the no drug treatment control. SS: […].
(§5) The results in FIGS. 1A-1B by genetic mutant analysis was also supported by the results from the CRM1 drug treatment experiment (FIGS. 2A-2F). KPT-330 and KPT-335 are known CRM1 inhibitors. In an HBV in vitro infection system, when KPT-330 or KPT-335 were added to the cell culture before or soon after the infection with HBV, HBc was strongly arrested in the nucleus by immunofluorescence microscopy (FIG. 2A). Relative to the control with no drug treatment, KPT-330 and KPT-335 could increase nuclear HBc by approximately 150-fold (FIG. 2B). HBsAg and HBeAg were HBV serum markers.

HBV [3] = test: HBV virion secretion assay, HuH-7 cells transfected with HBV replicon, native agarose gel with Western and Southern blot; format: cell-based, hepatitis B virus
Description: as §1, §2
An HBV replicon plasmid is transfected into HuH-7 human hepatoma cell line. SINE compound KPT-8602 is added to the transfected culture at 0 hr post-transfection (i.e., co-treatment). Extracellular media are collected on day 5 (120 hr) post-transfection. Assays for virion secretion are as described in FIG. 6A. Secretion of naked capsids is 100-fold (10 μM/0.1 μM) less sensitive to KPT-8602 treatment than virions.
as §3

HBV [4] = test: ELISA of HBsAg and HBeAg in medium, time course of drug treatment in HBV infection system (HepG2-NTCP-AS cells); format: cell-based, hepatitis B virus
Description: as §4, §5

[5] = tested on: Kaposi's sarcoma-associated herpesvirus (KSHV); settings: cited from earlier work
[6] = tested on: human cytomegalovirus (HCMV); settings: by increasing the expression of type I interferon; cited from earlier work
[7] = drug and virus added at the same time (co-treatment), 0.5-1 μM

O=C(/C=C\n1cnc(-c2cc(C(F)(F)F)cc(C(F)(F)F)c2)n1)NNc1ccccn1 [KPT-335, Verdinexor]
capsid protein (HBV [1]): no significant effect
capsid-associated RNA (RNA encapsidation) (HBV [1]): no significant effect
anti-proliferation effect (HuH-7 cells; below 0.25 μM, alamarBlue and CCK-8): No significant anti-proliferation effect
HBV DNA synthesis (HBV [2]): strongly inhibited
HBV RNA encapsidation (cytoplasmic capsid-associated pgRNA) (HBV [2]): strongly inhibited
formation of HBc capsids (HBV [2]): strongly inhibited
HBV virion secretion (HBV [3]; 0.5 μM, co-treatment): almost completely block
secretion of naked capsids, sensitivity in contrast to virions (HBV [3]; 0.1, 0.25, 0.5 and 1 μM): much less sensitive
blocking virion secretion (HBV [3]; drug added at 1-day post infection): not effective
effect on HBV (HBV [4]; added at 3 or 5 dpi): no effect
HBeAg in the medium by ELISA (HBV [4]; drug added at 3 or 5 dpi): no apparent effect
HBsAg in the medium by ELISA (HBV [4]; drug added at 3 or 5 dpi): no apparent effect
HBeAg in the medium by ELISA (HBV [4]; [7]): inhibit; also recorded: complete inhibition
HBsAg in the medium by ELISA (HBV [4]; [7]): inhibit; also recorded: complete inhibition

NC(=O)/C(=C/n1cnc(-c2cc(C(F)(F)F)cc(C(F)(F)F)c2)n1)c1cncnc1 [KPT-8602, Eltanexor]
lytic replication of KSHV [5]: reduced
cytotoxicity, side-by-side comparison (HuH-7 cells): less cytotoxic
inhibition of human cytomegalovirus (HCMV) [6]: inhibit
HBV virion secretion (HBV [3]; 0.1 μM, co-treatment at 0 hr post-transfection, media collected day 5): blocks; also recorded: nearly completely block
inhibition of HBV virion secretion, side-by-side comparison (HBV [3]; 0.1, 0.25, 0.5 and 1 μM): more inhibitory than KPT-335
secretion of naked capsids, sensitivity in contrast to virions (HBV [3]; 0.1, 0.25, 0.5 and 1 μM): much less sensitive
potency, side-by-side comparison (HBV [3]; HBV virion secretion, HuH-7): more potent
secretion of naked capsids less sensitive than virions (10 μM/0.1 μM) (HBV [3]; HuH-7, co-treatment, day 5): 100 fold
